Reference: patent US20200055817A1 (AbbVie Deutschland GmbH & Co. KG, priority 2016, published 2020)
pEC50: −log10 of the molar value.

What was measured:
Assay type in all cases: cell-based
[1] = target: T1, human EDG1 (S1PR1) receptor (Homo sapiens, UniProt P21453); experiment: Aequorin assay, agonist potency, CHO-A21-Edg1#17 cells; conditions: agonist mode, aequorin luminescence; read-out: S1P1 EC50
T1 construct: expressed in transfected cells; host or cells: CHO-A21-Edg1#17 (CHO clone co-expressing mitochondrial aequorin and chimaeric Gaqi5)
T1 sequence (P21453 whole entry): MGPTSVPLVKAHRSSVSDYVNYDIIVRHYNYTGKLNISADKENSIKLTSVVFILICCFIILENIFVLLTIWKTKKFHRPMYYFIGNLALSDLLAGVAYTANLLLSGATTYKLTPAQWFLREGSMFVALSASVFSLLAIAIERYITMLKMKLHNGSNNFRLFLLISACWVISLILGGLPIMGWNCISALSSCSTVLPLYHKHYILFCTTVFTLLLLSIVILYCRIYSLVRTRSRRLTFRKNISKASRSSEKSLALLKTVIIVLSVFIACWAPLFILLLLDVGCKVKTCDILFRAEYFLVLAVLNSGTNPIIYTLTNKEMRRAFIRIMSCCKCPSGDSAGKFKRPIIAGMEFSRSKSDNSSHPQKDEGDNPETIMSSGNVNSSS
Procedure, shortened: (§1)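 CHO cells coexpressing receptor, mitochondrial aequorin and Gαqi5 (S1P3 pool: GNA16) were loaded overnight at RT with 5 μM coelenterazine h in 0.1% fatty-acid-free BSA buffer. Cells were injected onto compound, luminescence recorded 90 s and integrated, normalised to digitonin or 20 μM ATP; sigmoidal fit.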

[2] = target: T2, human EDG8 (S1PR5) receptor (Homo sapiens, UniProt Q9H228); experiment: Aequorin assay, agonist potency, CHO-A21-EDG8#12 cells; conditions: agonist mode, aequorin luminescence; read-out: S1P5 EC50 range #
T2 construct: carries the transgenes human EDG8 (S1PR5) receptor (Acession number NP_110387.1); expressed in transfected cells; host or cells: CHO-A21-EDG8#12 (CHO clone co-expressing mitochondrial aequorin and chimaeric Gaqi5)
T2 sequence (Q9H228 whole entry): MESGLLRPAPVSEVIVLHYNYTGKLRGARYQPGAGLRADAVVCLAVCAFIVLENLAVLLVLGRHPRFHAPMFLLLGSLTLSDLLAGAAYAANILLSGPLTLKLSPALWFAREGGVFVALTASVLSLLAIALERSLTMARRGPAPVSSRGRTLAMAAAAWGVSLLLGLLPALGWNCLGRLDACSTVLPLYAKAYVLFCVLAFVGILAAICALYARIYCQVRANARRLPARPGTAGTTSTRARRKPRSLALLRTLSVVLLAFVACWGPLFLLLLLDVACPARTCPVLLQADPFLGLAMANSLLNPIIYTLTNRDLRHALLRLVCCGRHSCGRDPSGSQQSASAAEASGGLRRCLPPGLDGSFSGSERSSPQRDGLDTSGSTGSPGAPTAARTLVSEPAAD
Procedure, shortened: as §1

S1P4 = target: T3, S1P4 (Homo sapiens, UniProt O95977); experiment: Aequorin assay, agonist potency, S1P4; conditions: agonist mode, aequorin luminescence
T3 sequence (O95977 1-384): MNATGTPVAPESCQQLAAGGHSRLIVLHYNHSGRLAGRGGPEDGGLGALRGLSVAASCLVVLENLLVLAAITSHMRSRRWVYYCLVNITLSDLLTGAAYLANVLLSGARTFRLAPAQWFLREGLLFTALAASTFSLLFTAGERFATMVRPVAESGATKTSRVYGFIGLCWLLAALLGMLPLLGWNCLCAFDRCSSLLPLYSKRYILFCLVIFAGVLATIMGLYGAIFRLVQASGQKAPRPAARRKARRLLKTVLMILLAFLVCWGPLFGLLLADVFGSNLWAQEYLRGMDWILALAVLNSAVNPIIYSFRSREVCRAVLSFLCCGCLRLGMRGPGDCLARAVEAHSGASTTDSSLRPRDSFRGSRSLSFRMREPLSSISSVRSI
Procedure, shortened: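 Aequorin luminescence read over 90 s after adding coelenterazine h–loaded cells (5 μM, overnight, RT) to test compound in phenol red-free DMEM/F12 buffer containing 0.1% fatty acid-free BSA. Responses integrated, scaled to the 100% signal from 100 μM digitonin or 20 μM ATP, and fitted to a sigmoidal dose-response model.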

Row | SMILES | pEC50 [1] | pEC50 [2] | pEC50 (S1P4)
1 | CC(C)Oc1ccc(C#Cc2ccc3c(c2)CC2(C3)CN(C3CC(C(=O)O)C3)C2)cc1 (stereo not drawn) [Example 97, 3-(5′-((4-isopropoxyphenyl)ethynyl)-1′,3′-dihydrospiro[azetidine-3,2′-inden]-1-yl)cyclobutanecarboxylic acid] | > 6.00 | ≥ 8.00 | < 6.00
2 | CCOc1ccc(C#Cc2ccc3c(c2)CC2(C3)CN(C3CC(C(=O)O)C3)C2)cc1 (stereo not drawn) [Example 98, 3-(5′-((4-ethoxyphenyl)ethynyl)-1′,3′-dihydrospiro[azetidine-3,2′-inden]-1-yl)cyclobutanecarboxylic acid] | > 6.00 | 7.00 to 8.00 | < 6.00
3 | O=C(O)C1CC(N2CC3(Cc4ccc(C#Cc5ccc(OCC6CC6)nc5)cc4C3)C2)C1 (stereo not drawn) [Example 99, 3-(5′-((6-(cyclopropylmethoxy)pyridin-3-yl)ethynyl)-1′,3′-dihydrospiro[azetidine-3,2′-inden]-1-yl)cyclobutanecarboxylic acid] | > 6.00 | 6.00 to 7.00 | < 6.00
4 | CCOc1ccc(C#Cc2ccc3c(c2)CC2(C3)CN(C3CC(C(=O)O)C3)C2)cc1F (stereo not drawn) [Example 100, 3-(5′-((4-ethoxy-3-fluorophenyl)ethynyl)-1′,3′-dihydrospiro[azetidine-3,2′-inden]-1-yl)cyclobutanecarboxylic acid] | > 6.00 | ≥ 8.00 | < 6.00
5 | COc1ccc(C#Cc2ccc3c(c2)CC2(C3)CN(C3CC(C(=O)O)C3)C2)c(C)c1 (stereo not drawn) [Example 101, 3-(5′-((4-methoxy-2-methylphenyl)ethynyl)-1′,3′-dihydrospiro[azetidine-3,2′-inden]-1-yl)cyclobutanecarboxylic acid] | < 6.00 | 5.00 to 6.00 | > 6.00
6 | CC1CCC(C#Cc2ccc3c(c2)CC2(C3)CN(C3CC(C(=O)O)C3)C2)CC1 (stereo not drawn) [Example 102, 3-(5′-((4-methylcyclohexyl)ethynyl)-1′,3′-dihydrospiro[azetidine-3,2′-inden]-1-yl)cyclobutanecarboxylic acid] | < 6.00 | ≥ 8.00 | > 6.00
7 | CC(Oc1ccc(C#Cc2ccc3c(c2)CC2(C3)CN(C3CC(C(=O)O)C3)C2)cn1)C(F)(F)F (stereo not drawn) [Example 103, 3-(5′-((6-((1,1,1-trifluoropropan-2-yl)oxy)pyridin-3-yl)ethynyl)-1′,3′-dihydrospiro[azetidine-3,2′-inden]-1-yl)cyclobutanecarboxylic acid] | > 6.00 | ≥ 8.00 | > 6.00
8 | O=C(O)C1CC(N2CC3(Cc4ccc(OC5CCc6ccccc65)cc4C3)C2)C1 (stereo not drawn) [Example 104, 3-(5′-((2,3-dihydro-1H-inden-1-yl)oxy)-1′,3′-dihydrospiro[azetidine-3,2′-inden]-1-yl)cyclobutanecarboxylic acid] | < 6.00 | ≥ 8.00 | > 6.00
9 | O=C(O)C1CC(N2CC3(Cc4ccc(OCCc5ccccc5C(F)(F)F)cc4C3)C2)C1 (stereo not drawn) [Example 105, 3-(5′-(2-(trifluoromethyl)phenethoxy)-1′,3′-dihydrospiro[azetidine-3,2′-inden]-1-yl)cyclobutanecarboxylic acid] | < 6.00 | 5.00 to 6.00 | > 6.00
10 | O=C(O)C1CC(N2CC3(Cc4ccc(OC5CCc6cccc(Cl)c65)cc4C3)C2)C1 (stereo not drawn) [Example 106, 3-(5′-((7-chloro-2,3-dihydro-1H-inden-1-yl)oxy)-1′,3′-dihydrospiro[azetidine-3,2′-inden]-1-yl)cyclobutanecarboxylic acid] | > 6.00 | ≥ 8.00 | > 6.00
11 | CCOc1ccc(C#Cc2ccc3c(c2)CC2(C3)CN(CC3(C(=O)O)CC3)C2)cc1 [Example 112, 1-((5′-((4-ethoxyphenyl)ethynyl)-1′,3′-dihydrospiro[azetidine-3,2′-inden]-1-yl)methyl)cyclopropanecarboxylic acid] | < 6.00 | 6.00 to 7.00 | < 6.00
12 | CC(C)Oc1ccc(C#Cc2ccc3c(c2)CC2(C3)CN(CC3(C(=O)O)CC3)C2)cc1 [Example 113, 1-((5′-((4-isopropoxyphenyl)ethynyl)-1′,3′-dihydrospiro[azetidine-3,2′-inden]-1-yl)methyl)cyclopropanecarboxylic acid] | > 6.00 | ≥ 8.00 | < 6.00
13 | CC(C)Oc1ccc(C#Cc2ccc3c(c2)CC2(C3)CN(CC3(C(=O)O)CC3)C2)cn1 [Example 114, 1-((5′-((6-isopropoxypyridin-3-yl)ethynyl)-1′,3′-dihydrospiro[azetidine-3,2′-inden]-1-yl)methyl)cyclopropanecarboxylic acid] | < 6.00 | 6.00 to 7.00 | < 6.00
14 | O=C(O)C1(CN2CC3(Cc4ccc(C#Cc5ccc(OC6CCCC6)nc5)cc4C3)C2)CC1 [Example 116, 1-((5′-((6-(cyclopentyloxy)pyridin-3-yl)ethynyl)-1′,3′-dihydrospiro[azetidine-3,2′-inden]-1-yl)methyl)cyclopropanecarboxylic acid] | < 6.00 | 7.00 to 8.00 | < 6.00
15 | CC(Oc1ccc(C#Cc2ccc3c(c2)CC2(C3)CN(CC3(C(=O)O)CC3)C2)cn1)C(F)(F)F (stereo not drawn) [Example 117, 1-((5′-((6-((1,1,1-trifluoropropan-2-yl)oxy)pyridin-3-yl)ethynyl)-1′,3′-dihydrospiro[azetidine-3,2′-inden]-1-yl)methyl)cyclopropanecarboxylic acid] | > 6.00 | ≥ 8.00 | < 6.00
16 | COc1ccc(C#Cc2ccc3c(c2)CC2(C3)CN(CC3(C(=O)O)CC3)C2)c(C)c1 [Example 118, 1-((5′-((4-methoxy-2-methylphenyl)ethynyl)-1′,3′-dihydrospiro[azetidine-3,2′-inden]-1-yl)methyl)cyclopropanecarboxylic acid] | < 6.00 | 5.00 to 6.00 | > 6.00
17 | CC(C)Oc1ccc(CCc2ccc3c(c2)CC2(C3)CN(CC3(C(=O)O)CC3)C2)cn1 [Example 119, 1-((5′-(2-(6-isopropoxypyridin-3-yl)ethyl)-1′,3′-dihydrospiro[azetidine-3,2′-inden]-1-yl)methyl)cyclopropanecarboxylic acid] | < 6.00 | 5.00 to 6.00 | < 6.00
18 | CCOc1c(F)cc(COc2ccc3c(c2)CC2(C3)CN(CC3(C(=O)O)CC3)C2)cc1F [Example 120, 1-((5′-((4-ethoxy-3,5-difluorobenzyl)oxy)-1′,3′-dihydrospiro[azetidine-3,2′-inden]-1-yl)methyl)cyclopropanecarboxylic acid] | < 6.00 | 5.00 to 6.00 | > 6.00
19 | COc1ccc(COc2ccc3c(c2)CC2(C3)CN(CC3(C(=O)O)CC3)C2)c(C)n1 [Example 121, 1-((5′-((6-methoxy-2-methylpyridin-3-yl)methoxy)-1′,3′-dihydrospiro[azetidine-3,2′-inden]-1-yl)methyl)cyclopropanecarboxylic acid] | < 6.00 | 5.00 to 6.00 | < 6.00
20 | CCOc1cc(F)c(COc2ccc3c(c2)CC2(C3)CN(CC3(C(=O)O)CC3)C2)c(F)c1 [Example 122, 1-((5′-((4-ethoxy-2,6-difluorobenzyl)oxy)-1′,3′-dihydrospiro[azetidine-3,2′-inden]-1-yl)methyl)cyclopropanecarboxylic acid] | < 6.00 | 5.00 to 6.00 | > 6.00
21 | CCOc1ccc(COc2ccc3c(c2)CC2(C3)CN(CC3(C(=O)O)CC3)C2)c(F)c1F [Example 123, 1-((5′-((4-ethoxy-2,3-difluorobenzyl)oxy)-1′,3′-dihydrospiro[azetidine-3,2′-inden]-1-yl)methyl)cyclopropanecarboxylic acid] | < 6.00 | 5.00 to 6.00 | > 6.00
22 | O=C(O)C1(CN2CC3(Cc4ccc(OCc5cc(Cl)cnc5Cl)cc4C3)C2)CC1 [Example 124, 1-((5′-((2,5-dichloropyridin-3-yl)methoxy)-1′,3′-dihydrospiro[azetidine-3,2′-inden]-1-yl)methyl)cyclopropanecarboxylic acid] | < 6.00 | 5.00 to 6.00 | > 6.00
23 | O=C(O)C1(CN2CC3(Cc4ccc(OCc5cccc6c5CCC6)cc4C3)C2)CC1 [Example 125, 1-((5′-((2,3-dihydro-1H-inden-4-yl)methoxy)-1′,3′-dihydrospiro[azetidine-3,2′-inden]-1-yl)methyl)cyclopropanecarboxylic acid] | < 6.00 | 7.00 to 8.00 | > 6.00
24 | O=C(O)C1(CN2CC3(Cc4ccc(OCC5CCCCC5)cc4C3)C2)CC1 [Example 126, 1-((5′-(cyclohexylmethoxy)-1′,3′-dihydrospiro[azetidine-3,2′-inden]-1-yl)methyl)cyclopropanecarboxylic acid] | < 6.00 | 6.00 to 7.00 | > 6.00
